Experimental data published in BindingDB's records for PubMed 32739648 (n/a, 2020).

Target: Epidermal growth factor receptor (Homo sapiens, UniProt P00533)
Experiment: Inhibition of human EGFR incubated for 1 hrs in presence of ATP by ELISA assay

Chain of Epidermal growth factor receptor (P00533 whole entry): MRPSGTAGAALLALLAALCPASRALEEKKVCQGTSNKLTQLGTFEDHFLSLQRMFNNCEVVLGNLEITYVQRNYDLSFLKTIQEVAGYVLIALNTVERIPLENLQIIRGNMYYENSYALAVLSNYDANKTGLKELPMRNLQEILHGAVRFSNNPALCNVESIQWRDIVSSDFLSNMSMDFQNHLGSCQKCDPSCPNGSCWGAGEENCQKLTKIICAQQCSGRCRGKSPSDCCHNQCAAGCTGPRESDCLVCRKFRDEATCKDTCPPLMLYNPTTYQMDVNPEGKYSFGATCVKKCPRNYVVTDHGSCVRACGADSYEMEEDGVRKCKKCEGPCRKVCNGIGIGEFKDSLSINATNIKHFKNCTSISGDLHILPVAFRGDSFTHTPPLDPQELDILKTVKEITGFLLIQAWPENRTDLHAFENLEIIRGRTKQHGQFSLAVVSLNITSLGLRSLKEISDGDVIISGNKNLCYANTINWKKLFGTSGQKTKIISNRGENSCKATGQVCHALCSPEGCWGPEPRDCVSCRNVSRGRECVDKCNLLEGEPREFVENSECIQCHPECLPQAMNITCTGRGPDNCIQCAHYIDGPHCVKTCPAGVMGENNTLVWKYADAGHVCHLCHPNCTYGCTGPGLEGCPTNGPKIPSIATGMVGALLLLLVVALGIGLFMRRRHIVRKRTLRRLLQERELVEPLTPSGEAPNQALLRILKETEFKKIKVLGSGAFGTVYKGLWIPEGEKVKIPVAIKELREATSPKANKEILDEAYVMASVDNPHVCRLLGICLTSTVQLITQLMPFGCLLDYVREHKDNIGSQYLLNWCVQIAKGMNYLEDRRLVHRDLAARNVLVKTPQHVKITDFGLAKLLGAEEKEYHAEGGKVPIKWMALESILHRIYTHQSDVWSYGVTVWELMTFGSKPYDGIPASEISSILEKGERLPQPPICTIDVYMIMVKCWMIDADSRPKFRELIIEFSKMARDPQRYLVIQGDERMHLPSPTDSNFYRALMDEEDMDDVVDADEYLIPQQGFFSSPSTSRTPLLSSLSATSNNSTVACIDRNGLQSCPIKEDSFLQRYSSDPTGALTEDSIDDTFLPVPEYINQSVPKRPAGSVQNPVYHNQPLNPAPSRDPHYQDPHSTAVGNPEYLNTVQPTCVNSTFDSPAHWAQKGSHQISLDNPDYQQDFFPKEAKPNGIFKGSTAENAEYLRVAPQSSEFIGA

## CSCC[C@@H](NC(=O)[C@@H](NC(=O)[C@@H](NC(=O)CC(=O)N(O)C/C=C(\C)CC/C=C(\C)CCC=C(C)C)C(C)C)C(C)C)C(=O)O
  IC50: 22 nM
